Here are results for 9 compounds from US12156860B2, “Disorders implicating PUFA oxidation” (BioJiva LLC, priority 2011, dated 2024).

SMILES strings stand for the structures.

The test system of data set [1] is Q-less coq3 yeast. Kind of data set: Yeast incubated with different ratios of H- and D-PUFA, plate dilution. Format: cell-based, S. cerevisiae. The following applies: after 3 hours of treatment, data not shown. On the procedure:
FIG. 9. […] Wild-type, yeast Q-less coq3, or respiratory deficient cor1 null mutants were incubated in the presence of 200 μM of LA and D2-LA at different ratios of PUFAs. Serial dilutions (1:5) starting at 0.2 OD/ml were spotted on YPD solid plate medium. A zero-time untreated control is shown on the top left. Growth at 30° C.
FIG. 10. […] Serial dilutions (1:5) starting at 0.2 OD/ml were spotted on YPD solid plate medium. Growth at 30° C.
Wild-type, yeast Q-less coq3, or respiratory deficient cor1 null mutants were incubated in the presence of 200 μM of LA and D2-LA at different ratios of PUFAs, as indicated in FIG. 9. Serial dilutions (1:5) starting at 0.2 OD/ml were spotted on YPD solid plate medium. […] Growth was at 30° C.
Serial dilutions (1:5) starting at 0.2 OD/ml were spotted on YPD solid plate medium. Growth was at 30° C.

The subject of data set [2] is coq null mutants (Q-less yeast). The following applies: for protection in the yeast model: compared with D4-linolenic acid; for viability of coq null mutants after fatty acid treatment: 200 μM fatty acid, plate dilution / colony assay. As for the experimental part: FIG. 3. […] Yeast coq3, coq7 and coq9 null mutants were prepared in the W303 yeast genetic background (WT). Yeast strains were grown in YPD medium (1% Bacto-yeast extract, 2% Bacto-peptone, 2% dextrose) and harvested while in log phase growth (OD600 nm=0.1-1.0). Cells were washed twice with sterile water and resuspended in phosphate buffer (0.10 M sodium phosphate, pH 6.2, 0.2% dextrose) to an OD600 nm=0.2. Samples were removed and 1:5 serial dilutions starting at 0.20 OD/ml were plated on YPD plate medium, to provide a zero time untreated control (shown in top left panel). The designated fatty acids were added to 200 μM final concentration to 20 ml of yeast in phosphate buffer. At 2 h, 4 h, and 16 h samples were removed, 1:5 serial dilutions prepared, and spotted onto YPD plate medium. Pictures were taken after 2 days of growth at 30° C.
FIG. 4. […] The fatty acid sensitive assay was performed as described in FIG. 3, except that 100 μl aliquots were removed at 1, 2, and 4 h and, following dilution, spread onto YPD plates. Pictures were taken after 2 to 2.5 days, and the number of colonies counted. Yeast strains include Wild type (circles), atp2 (triangles), or coq3 (squares); Fatty acid treatments include oleic C18:1 (solid line), linolenic, C18:3, n-3 (dashed line) or 11,11,14,14-D4-linolenic, C18:3, n-3, (dotted line).
Q-less yeast (coq mutants) provide an ideal system to assess in vivo autoxidation of fatty acids. Coenzyme Q (ubiquinone or Q) serves as a small lipophilic antioxidant as well as an electron shuttle in the respiratory chain of the mitochondrial inner membrane. Ten S. cerevisiae genes (COQ1-COQ10) are required for coenzyme Q biosynthesis and function, and the deletion of any results in respiratory deficiency (Tran U C, Clarke C F. Mitochondrion 2007; 7S, 562).
A plate dilution assay can be used to assess PUFA sensitivity. This assay can be performed by spotting serial five-fold dilutions of aliquots onto YPD plate media (FIG. 3). The sensitivity of the different strains can be observed by visual inspection of the density of cells in each spot.

Data set [3] has as its system rat hearts. As to the kind of experiment: Langendorf isolated heart perfusion model, echo- and electrocardiography. Format: in vivo. The following applies: rats, 8 weeks supplementation. On the procedure:
Test compounds disclosed herein can also be assessed using the Langendorf isolated heart perfusion model. […] Following the treatment period, rat hearts are analyzed by echocardiography for measurement of muscle thickness of the left ventricle, left atrium, right ventricle, and right atrium and electrocardiography for measuring electrical activity. After live evaluation, rats are humanely sacrificed and their hearts isolated and connected to the Langendorf isolated perfusion system (See Jennings et al., Am. Surg. 2004; 70(9), 797-800). Left ventricular pressure is then measured with a left ventricular balloon. Coronary flow is also measured. Cardiac function is further assessed by determining the effect of administration of test compounds on the rate of contraction and relaxation of the heart. To determine whether any observed effects on cardiac function are due to the effect of the test compound on mitochondrial function, mitochondrial activity pre-ischemia and post-ischemia is assessed for each of the treatment groups.

For data set [4], the system named is WT (W303) yeast. The conditions noted are these: 200 μM, 4 h incubation.
Procedure: Uptake of exogenously supplied fatty acids by yeast. WT (W303) yeast were harvested at log phase and incubated in the presence of 200 μM of the designated fatty acid for either 0 or 4 h.
Wild-type yeast were harvested during log phase growth and incubated in the presence of exogenously added fatty acid (for 0 or 4 h) in the presence of phosphate buffer plus 0.20% dextrose, as described for the fatty acid sensitivity assay. Cells were harvested, washed twice with 10 ml sterile water, and the yeast cell pellets were then processed by alkaline methanolysis as described above. The fatty acids are detected as methylesters (FAMEs) following GC-MS with C17:0 added as an internal standard (FIG. 6).
The test system of data set [5] is NASH (MCD diet) rats. Kind of data set: NASH induced by methionine and choline deficient diet. Format: in vivo, Rattus norvegicus, Wistar. The following applies: daily over three months. On the procedure: (§1) Fifty male heterozygous rats, 45-days-old, from the Rattus norvegicus species and Wistar lineage are kept in polypropylene cages, in groups of five animals, under a 12 h-clear/dark cycle and under controlled temperature conditions. The induction of NASH is carried out through a diet deficient in methionine and choline (MCD) according to known procedures (See Rogers A E, Newberne P M. Alcoholic and nutritional fatty liver and cirrhosis. Am J Pathol. 1973; 73:817-20). […] During the study period, the animals are weighed on a weekly basis and the drugs dose is readjusted as necessary. On the first day of the study, besides determining the animals' weight, their blood is collected through retro-orbital plexus puncture for biochemical analysis: alanine-aminotransferase (ALT) and aspartate-aminotransferase (AST) (colorimetric test, using the Labtest kit). One day after concluding the induction period and compound administration (90 days), animals are sacrificed by decapitation. Once more, each animal's blood is collected for biochemical analysis. Then, laparotomy with total hepatectomy and liver preparation are carried out for lipoperoxidation (LPO) and histological analysis. Liver tissue samples are analyzed using the thiobarbituric-acid reactant substance (TBARS) measurement according to known methods (See Lowry et al. Protein measurement with the folin phenol reagent. J Biol Chem. 1951; 193:265-75) and the results are expressed in nmol of malondialdehyde/mg of protein. Slides with liver fragments are also dyed with hematoxilin-eosine and picrosirius, in order to evaluate the fibrosis level, and with Perls to evaluate the presence of iron stores, having been examined by an only pathologist blinded to the animals' data. The minimum histological criterion for NASH diagnosis is the presence of hepatocellular ballooning-related steatosis, involving zone 3 and lobular inflammatory infiltrate. Mallory corpuscles and sinusoidal fibrosis, involving zone 3 might be present or not. The graduation of both necroinflammatory and fibrosis activity is carried out according to known classifications (See Brunt E M, Janney C G, Di Bisceglie A M, Neuschwander-Tetri B A, Bacon B R. Nonalcoholic steatohepatitis: a proposal for grading and staging the histological lesions. Am J Gastroenterol. 1999; 94:2467-74).

The subject of data set [6] is alcoholic liver disease rats. Kind of data set: Alcoholic liver disease and cirrhosis induced by 5% ethanol diet. Format: in vivo, Rattus norvegicus, Wistar. The conditions noted are these: 5% ethanol diet rats, daily over three months. As for the experimental part:
as §1, with “alcoholic liver disease and cirrhosis” for “NASH”, “containing 5% ethanol […].” for “deficient in methionine and choline (MCD) according to known procedures (See Rogers A E, Newberne P M. Alcoholic and nutritional fatty liver and cirrhosis. Am J Pathol. 1973; 73:817-20).”, “days), the” for “days),”, “data.” for “data. The minimum histological criterion for NASH diagnosis is the presence of hepatocellular ballooning-related steatosis, involving zone 3 and lobular inflammatory infiltrate. Mallory corpuscles and sinusoidal fibrosis, involving zone 3 might be present or not. The graduation of both necroinflammatory and fibrosis activity is carried out according to known classifications (See Brunt E M, Janney C G, Di Bisceglie A M, Neuschwander-Tetri B A, Bacon B R. Nonalcoholic steatohepatitis: a proposal for grading and staging the histological lesions. Am J Gastroenterol. 1999; 94:2467-74).”

For data set [7], the system named is stroke-prone spontaneously hypertensive (SHRSP) rat. As to the kind of experiment: SHRSP rat model of hypertension. It is filed as in vivo. The conditions noted are these: SHRSP rats, 8 weeks. The source says:
The stroke-prone spontaneously hypertensive (SHRSP) rat model of hypertension, which has been previously described (McIntyre et al., 1997 Hypertension 30:1517; Alexander et al., 1999 Cardiovasc. Res. 43:798; Fennell et al., 2002 Gene Ther. 9:110), can be used for the assessment of a compound's ability to mitigate hypertension.

A short description of data set [8]: Kinetics of O2 consumption during AMVN-initiated oxidation in chlorobenzene (glass capillary microvolumeter). Format: physicochemical. As for the experimental part: FIG. 7. Kinetics of O2 consumption accompanied the oxidation of 0.71 M LA (plots 1 and 2) and 0.71 M D2-LA (plot 3) in chlorobenzene initiated by 40 mM AMVN at 37° C. Plot 2-0.23 mM HPMC was added to 0.71 M LA.
The kinetics of oxygen consumption during the oxidation of LA and D2-LA was studied with a glass capillary microvolumeter (FIG. 7). The rate of oxidation, ROX, was measured as a slope of [O2] traces. The rate of initiation, RIN, was determined by the inhibitor method with HPMC (“6-hydroxy-2,2,5,7,8-pentamethylbenzochroman”) as a reference inhibitor. RIN was calculated from the induction period of inhibited oxidation, tIND: RIN=2·[HPMC]/tIND. […] When the process was inhibited by 0.23 mM chain-breaking antioxidant HPMC, the duration of the induction period, tIND, was about 48 min, with the RIN value of around 0.16×10^−6 M/s. […] The latter precludes a direct determination of RIN. […] An estimated kinetic isotope effect (“KIE”), from comparison of ROX for LA and D2-LA, was around 6.1×10^−6/0.18×10^−6≈35. A similar KIE was determined during the oxidation of LA and 11,11-d2-LA in Triton X-100 aqueous micelles (data not shown). For comparative purposes, the theoretical KIE is 6.9 at 25° C. See Carpenter, “Determination of Organic Reaction Mechanisms” (John Wiley & Sons, 1984), p. 89.

Data set [9] deals with coq null mutants (Q-less yeast). The conditions noted are these: cited from earlier work; for sensitivity of Q-less yeast to fatty acid treatment: compared with wild-type parental strain.
For data set [10] the following is noted: cited from earlier work.
In data set [11] the test system is wild-type (W303-1B) yeast cells. The conditions noted are these: four hour treatment; cited from earlier work.

`[2H]C(/C=C\CCCCC)/C=C\CCCCCCCC(=O)O` (stereo not shown) [11,11-D,H-LA, [11^−2 H]-linoleic acid]: the cell viability entry in data set [1] is listed as “no detectable loss in cell viability”.
Turning to `[2H]C([2H])(/C=C\C/C=C\CC)C/C=C\CCCCCCC(=O)O` [11, 11-D2-linolenic acid, 11,11-Dideutero-cis,cis,cis-octadeca-8,12,15-trienoic acid], the “protection in the yeast model” value in [2] is “comparable protection”.
Turning to `[2H]C([2H])(/C=C\CC)/C=C\CC/C=C\CCCCCCC(=O)O` [14, 14-D2-linolenic acid, 14,14-Dideutero-cis,cis,cis-octadeca-8,12,15-trienoic acid], the “protection in the yeast model” value in [2] was “comparable protection”.
On to `[2H]C([2H])(/C=C\CC)/C=C\C([2H])([2H])/C=C\CCCCCCCC(=O)O` [D4-linolenic acid, 11,11,14,14-Tetradeutero-cis,cis,cis-9,12,15-Octadecatrienoic acid], for which the “symptoms and markers associated with cardiac disorders” value in data set [3] was “reduce symptoms and markers associated with cardiac disorders”. The “incorporation of fatty acid by yeast” value in data set [4] is “avidly incorporate”. For the same compound, in data set [5], the “amount of MDA in liver samples (TBARS)” value is recorded as “reduce the amount of MDA found in liver samples” and the “histological signs of NASH” value is given as “reverse the histological signs of NASH”. Further, in data set [2], the “viability of coq null mutants after fatty acid treatment” value is “resistant to PUFA-mediated cell killing”. For the same compound, the “viability of cells compared with oleic acid treatment” value in [2] (quantitative colony counting (FIG. 4)) is recorded as “similar”. Also, in data set [6], the “amount of MDA in liver samples (TBARS)” value is listed as “reduce the amount of MDA found in liver samples” and the “histological signs of fatty liver disease” value is given as “reverse the histological signs of fatty liver disease”. In data set [7], the systolic blood pressure result is “reduction in systolic blood pressure”.
Regarding `CCCCC/C=C\C/C=C\CCCCCCCC(=O)O` [LA, cis,cis-9,12-Octadecadienoic acid, reference compound], the “rate of oxidation, ROX” value in data set [8] (0.71 M in chlorobenzene, 40 mM AMVN, 37° C.) is 6.1e-06 M/s. Also, the “length of the kinetic chain, ROX/RIN” value in [8] (for D2-LA assuming RIN comparable to that of LA) was found to be 38±3. Also, the oxidizability in [8] (n=5) is 0.0215±0.008 M^−0.5 s^−0.5.
Regarding `CCCCC/C=C\C/C=C\C/C=C\C/C=C\CCCC(=O)O` [arachidonic acid], the “sensitivity of Q-less yeast to fatty acid treatment” value in data set [9] is listed as “hypersensitive”.
Take `[2H]O[2H]` [heavy water, D2O]: in data set [10], the “amount a 70 kg person might drink without serious consequences” value is 4.8 L.
Turning to `CC/C=C\C/C=C\C/C=C\CCCCCCCC(=O)O` [linolenic acid, cis,cis,cis-9,12,15-Octadecatrienoic acid, reference compound], in data set [9] (following a four hour treatment), the “viable Q-less (coq2, coq3, and coq5) yeast mutants” value is “Less than 1%”. Besides, the “incorporation of fatty acid by yeast” value in data set [4] was “avidly incorporate”. The “viability of coq null mutants after fatty acid treatment” value in data set [2] was “dramatic loss of viability”. Moreover, in data set [11], the “wild-type cells remaining viable” value is reported as 70%.
On to `CCCCCCCC/C=C\CCCCCCCC(=O)O` [oleic acid], for which, in [9], the “sensitivity of Q-less yeast to fatty acid treatment” value was “behave the same as the wild-type parental strain”.
